Reference: patent US7973056B2, “Triazole derivative or salt thereof” (Fujifilm Finechemicals Co., Ltd, priority 2008, dated 2011)
Values after ≈ are worked out from the molar mass of the structure shown.

Key:
[1] = test system: Candida albicans TIMM 1623; assay: Antifungal activity test (in vivo), mouse systemic infection model; set-up: survival rate: unit not given here; conditions: for T/C (%): survival time of administration group / control group x100
Description: With respect to compounds I-1, I-3 and I-6 obtained in Examples 1, 3 and 6 respectively, therapeutic effects at the time of subcutaneous administration of compounds I-1, I-3 and I-6 on a mouse systemic infection model by Candida albicans TIMM 1623 were tested.
The test was carried out using 5 animals for each of the drug administration groups and Negative control group (sterile physiological saline administration group).
Each of compounds I-1, I-3 and I-6 was dissolved in and diluted with dimethyl sulfoxide (DMSO; Wako Pure Chemical Industries, Ltd.) and then prepared into a predetermined concentration by diluting with sterile physiological saline.
As the control experiment, Fluconazole (FLCZ, Flanos intravenous drip solution 100 mg; TOYAMA CHEMICAL CO, LTD.) diluted to a predetermined concentration with sterile physiological saline was used.
On the next day of the receipt of animals, body weights of mice were measured and CP (crude protein) was intraperitoneally administered at a dose of 200 mg/kg based on the individual body weight, and then they were reared for 3 days.
Cells of C. albicans TIMM 1623 cultured overnight at 35° C. on SDA (Sabouraud dextrose agar; Eiken Chemical Co., Ltd.) plate medium were suspended in sterile physiological saline and used as the Stock solution, and a portion thereof was diluted with 10% formalin (Wako Pure Chemical Industries, Ltd.). The number of cells in the diluted liquid was counted under a biological microscope using a hemocytometer, and then an inoculum was prepared by diluting the stock solution with sterile physiological saline (about 1.5×10^5 cells/ml). By inoculating 0.2 ml of this cell suspension through caudal vein, infection was induced. In this connection, the number of viable cells in the inoculum was verified by spreading the cell suspension optionally diluted with sterile physiological saline on an SDA plate medium and then culturing at 35° C. Each of the substances to be tested, control substance or sterile physiological saline was subcutaneously administered after 2 hours of the infection and for 3 days starting on the next day of infection once a day, a total of 4 times. After measuring individual body weight on the next day of infection, CP was again administered intraperitoneally at a dose of 100 mg/kg. The number of survived mice was observed and recorded for 14 days starting on the next day of infection.
The results were shown in Table 3 below and FIGS. 1A to 1D. In the table, the administration dose of the compounds of the present invention and the comparative compound represents a mg amount per 1 kg of a mouse weight (mg/kg).
Significant deference was tested, by 5% for both sides of the levels of significance, in accordance with the Kaplan-Meier method Logrank test (comparison of multiple groups), on the survival time distribution of each of the substances to be tested and control substance administration groups and sterile physiological saline administration group. SAS release 8.2 (SAS Institute Japan) was used in the Kaplan-Meier method Logrank test. (T/C(%)=[survival time of administration group (integrated value)/survival time of control group (integrated value)]×100)

[2] = test system: Microsporum canis ATCC 36299; assay: Antifungal activity test (in vitro), MIC; assay type: cell-based; conditions: ATCC36299
[3] = test system: Aspergillus fumigatus ATCC 1028; assay: Antifungal activity test (in vitro), MIC; assay type: cell-based; conditions: ATCC1028

## C[C@@H](N1CCC(c2ccccn2)CC1)[C@](O)(Cn1cncn1)c1ccc(F)cc1F [I-1, (2R,3R)-2-(2,4-difluorophenyl)-3-(4-pyridin-2-ylpiperidin-1-yl)-1-(1,2,4-triazol-1-yl)butan-2-ol]
[1]; 0.1 mg/kg s.c., day 0
  survival rate: 100
[1]; 0.1 mg/kg s.c., day 1
  survival rate: 100
[1]; 0.1 mg/kg s.c., day 2
  survival rate: 100
[1]; 0.1 mg/kg s.c., day 3
  survival rate: 60
[1]; 0.1 mg/kg s.c., day 4
  survival rate: 60
[1]; 0.1 mg/kg s.c., day 5
  survival rate: 60
[1]; 0.1 mg/kg s.c., day 6
  survival rate: 60
[1]; 0.1 mg/kg s.c., day 7
  survival rate: 20
[1]; 0.1 mg/kg s.c., day 8
  survival rate: 20
[1]; 0.1 mg/kg s.c., day 9
  survival rate: 20
[1]; 0.1 mg/kg s.c., day 10
  survival rate: 20
[1]; 0.1 mg/kg s.c., day 11
  survival rate: 20
[1]; 0.1 mg/kg s.c., day 12
  survival rate: 0
[1]; 0.1 mg/kg s.c.
  T/C (%): 103%
[1]; 1 mg/kg s.c., day 0
  survival rate: 100
[1]; 1 mg/kg s.c., day 1
  survival rate: 100
[1]; 1 mg/kg s.c., day 2
  survival rate: 100
[1]; 1 mg/kg s.c., day 3
  survival rate: 100
[1]; 1 mg/kg s.c., day 4
  survival rate: 100
[1]; 1 mg/kg s.c., day 5
  survival rate: 80
[1]; 1 mg/kg s.c., day 6
  survival rate: 80
[1]; 1 mg/kg s.c., day 7
  survival rate: 60
[1]; 1 mg/kg s.c., day 8
  survival rate: 60
[1]; 1 mg/kg s.c., day 9
  survival rate: 60
[1]; 1 mg/kg s.c., day 10
  survival rate: 40
[1]; 1 mg/kg s.c., day 11
  survival rate: 40
[1]; 1 mg/kg s.c., day 12
  survival rate: 40
[1]; 1 mg/kg s.c., day 13
  survival rate: 20
[1]; 1 mg/kg s.c., day 14
  survival rate: 20
[1]; 1 mg/kg s.c.
  T/C (%): 161%
[1]; 10 mg/kg s.c., day 0
  survival rate: 100
[1]; 10 mg/kg s.c., day 1
  survival rate: 100
[1]; 10 mg/kg s.c., day 2
  survival rate: 100
[1]; 10 mg/kg s.c., day 3
  survival rate: 60
[1]; 10 mg/kg s.c., day 4
  survival rate: 60
[1]; 10 mg/kg s.c., day 5
  survival rate: 60
[1]; 10 mg/kg s.c., day 6
  survival rate: 60
[1]; 10 mg/kg s.c., day 7
  survival rate: 40
[1]; 10 mg/kg s.c., day 8
  survival rate: 40
[1]; 10 mg/kg s.c., day 9
  survival rate: 40
[1]; 10 mg/kg s.c., day 10
  survival rate: 40
[1]; 10 mg/kg s.c., day 11
  survival rate: 40
[1]; 10 mg/kg s.c., day 12
  survival rate: 40
[1]; 10 mg/kg s.c., day 13
  survival rate: 20
[1]; 10 mg/kg s.c., day 14
  survival rate: 20
[1]; 10 mg/kg s.c.
  T/C (%): 132%
[2]
  MIC: 0.3 µg/mL (≈ 0.726 µM)
[3]
  MIC: 10 µg/mL (≈ 24.2 µM)

## C[C@@H](N1CC=C(c2ccccn2)CC1)[C@](O)(Cn1cncn1)c1ccc(F)cc1F [I-3, (2R,3R)-2-(2,4-difluorophenyl)-3-(3′,6′-dihydro-2,4′-bipyridin-1′(2′H)-yl)-1-(1,2,4-triazol-1-yl)butan-2-ol]
[1]; 0.1 mg/kg s.c., day 0
  survival rate: 100
[1]; 0.1 mg/kg s.c., day 1
  survival rate: 100
[1]; 0.1 mg/kg s.c., day 2
  survival rate: 100
[1]; 0.1 mg/kg s.c., day 3
  survival rate: 60
[1]; 0.1 mg/kg s.c., day 4
  survival rate: 60
[1]; 0.1 mg/kg s.c., day 5
  survival rate: 60
[1]; 0.1 mg/kg s.c., day 6
  survival rate: 60
[1]; 0.1 mg/kg s.c., day 7
  survival rate: 40
[1]; 0.1 mg/kg s.c., day 8
  survival rate: 40
[1]; 0.1 mg/kg s.c., day 9
  survival rate: 40
[1]; 0.1 mg/kg s.c., day 10
  survival rate: 40
[1]; 0.1 mg/kg s.c., day 11
  survival rate: 40
[1]; 0.1 mg/kg s.c., day 12
  survival rate: 40
[1]; 0.1 mg/kg s.c., day 13
  survival rate: 40
[1]; 0.1 mg/kg s.c., day 14
  survival rate: 40
[1]; 0.1 mg/kg s.c.
  T/C (%): 139%
[1]; 1 mg/kg s.c., day 0
  survival rate: 100
[1]; 1 mg/kg s.c., day 1
  survival rate: 100
[1]; 1 mg/kg s.c., day 2
  survival rate: 100
[1]; 1 mg/kg s.c., day 3
  survival rate: 80
[1]; 1 mg/kg s.c., day 4
  survival rate: 80
[1]; 1 mg/kg s.c., day 5
  survival rate: 60
[1]; 1 mg/kg s.c., day 6
  survival rate: 40
[1]; 1 mg/kg s.c., day 7
  survival rate: 40
[1]; 1 mg/kg s.c., day 8
  survival rate: 40
[1]; 1 mg/kg s.c., day 9
  survival rate: 40
[1]; 1 mg/kg s.c., day 10
  survival rate: 40
[1]; 1 mg/kg s.c., day 11
  survival rate: 40
[1]; 1 mg/kg s.c., day 12
  survival rate: 40
[1]; 1 mg/kg s.c., day 13
  survival rate: 40
[1]; 1 mg/kg s.c., day 14
  survival rate: 40
[1]; 1 mg/kg s.c.
  T/C (%): 142%
[1]; 10 mg/kg s.c., day 0
  survival rate: 100
[1]; 10 mg/kg s.c., day 1
  survival rate: 100
[1]; 10 mg/kg s.c., day 2
  survival rate: 100
[1]; 10 mg/kg s.c., day 3
  survival rate: 60
[1]; 10 mg/kg s.c., day 4
  survival rate: 60
[1]; 10 mg/kg s.c., day 5
  survival rate: 60
[1]; 10 mg/kg s.c., day 6
  survival rate: 60
[1]; 10 mg/kg s.c., day 7
  survival rate: 40
[1]; 10 mg/kg s.c., day 8
  survival rate: 20
[1]; 10 mg/kg s.c., day 9
  survival rate: 20
[1]; 10 mg/kg s.c., day 10
  survival rate: 20
[1]; 10 mg/kg s.c., day 11
  survival rate: 20
[1]; 10 mg/kg s.c., day 12
  survival rate: 20
[1]; 10 mg/kg s.c., day 13
  survival rate: 20
[1]; 10 mg/kg s.c., day 14
  survival rate: 20
[1]; 10 mg/kg s.c.
  T/C (%): 116%
[2]
  MIC: 0.03 µg/mL (≈ 0.0729 µM)
[3]
  MIC: 1 µg/mL (≈ 2.43 µM)
